From ChEMBL document CHEMBL5576149, “Discovery of Potent STT3A/B Inhibitors and Assessment of Their Multipathogen Antiviral Potential and Safety” (J Med Chem, 2024)

Tests used:
[1] = Inhibition of STT3A/STT3B mediated N-linked glycosylation in human H1-HeLa cells stably transduced with ERluc by measuring effective concentration of inhibition incubated for 18 hrs by One-Glo luciferase reporter assay; type: cell-based
Human coronavirus 229E = assay: Antiviral activity against Human coronavirus 229E infected in human MRC5 cells assessed as reduction in viral growth incubated for 68 hrs by CellTiter-Glo luminescence assay; type: functional, organism-based; details: MRC5, 68 h
SARS-CoV-2 = assay: Antiviral activity against SARS-CoV-2 infected in human A549 cells assessed as reduction in viral growth incubated for 24 hrs by Nano-Glo reagent based analysis; type: functional, organism-based; details: Severe acute respiratory syndrome coronavirus 2, A549, 24 h
Influenza A virus [2] = assay: Antiviral activity against influenza A virus H1N1 A/Puerto Rico/8/1934 infected in MDCK cells assessed as reduction in viral replication measured after 30 hrs of post-infection by RT-qPCR analysis relative to control; type: functional; design: scale not given: the % may be the effect or the level left
[3] = Cytotoxicity against human MRC5 cells by luminescence-based cell viability assay; type: toxicity
A549 [4] = assay: Cytotoxicity against human A549 cells; type: functional
Influenza A virus [5] = assay: Antiviral activity against influenza A virus H1N1 A/Puerto Rico/8/1934 infected in MDCK cells assessed as reduction in viral replication measured after 3 hrs of post-infection by RT-qPCR analysis relative to control; type: functional; design: scale not given: the % may be the effect or the level left
A549 [6] = assay: Cytotoxicity against human A549 cells by fluorescent cell imaging assay; type: functional
Human respirovirus 3 = assay: Antiviral activity against Human parainfluenza virus 3 JS infected in human A549 cells assessed as reduction in viral proliferation incubated for 44 hrs by Hoechst dye based fluorescence analysis; type: functional, organism-based; details: Human respirovirus 3, JS, A549, 44 h
[7] = Unbound clearance in rat liver microsomes at 0.5 uM incubated upto 45 mins; type: ADME, Microsome; details: 0.75 h
[8] = Unbound clearance in human liver microsomes at 0.5 uM incubated upto 45 mins; type: ADME, Microsome; details: 0.75 h
[9] = Chromatographic hydrophobicity index, logD of the compound at pH 7.4; type: physicochemical; details: buffer
[10] = Cytotoxicity against human Hepatocyte cultured as 3D spheroids incubated for 14 days by CellTiter-Glo luminescence assay; type: toxicity, cell-based; details: hepatocytes cultured as 3D spheroids
[11] = MRT in Wistar Han rat at 2 mg/kg,po or 1 mg/kg,iv administrated upto 60 mins by LC-MS/MS analysis; type: ADME, organism-based; details: in vivo
[12] = Volume of distribution at steady state in Wistar Han rat at 2 mg/kg,po or 1 mg/kg,iv administrated upto 60 mins by LC-MS/MS analysis; type: ADME, organism-based; details: in vivo, 1 h
[13] = Unbound clearance in Wistar Han rat at 2 mg/kg,po or 1 mg/kg,iv administrated upto 60 mins by LC-MS/MS analysis; type: ADME, organism-based; details: in vivo, 1 h
[14] = Bioavailability in Wistar Han rat at 2 mg/kg,po or 1 mg/kg,iv administrated upto 60 mins by LC-MS/MS analysis; type: ADME, organism-based; details: in vivo
[15] = Solubility of compound in FaSSIF; type: ADME

| Structure (SMILES) | EC50 [1] | CL free [7] | chromatographic logD [9] | other results |
| --- | --- | --- | --- | --- |
| CN(C)S(=O)(=O)c1ccc(N2CCCC2)c(C(=O)Nc2ccc(F)cc2)c1 | 1390 nM |  |  |  |
| Cc1ccc2cc(-c3cc(S(=O)(=O)N(C)CC(=O)N4CCOCC4)ccc3N3CCCC3)[nH]c2c1 | 2 nM |  |  | EC50 (Human coronavirus 229E): 2 nM; EC50 (SARS-CoV-2): 4 nM; Activity (Influenza A virus [2]): 60%; CC50 [3]: 44 nM; CC50 (A549 [4]): 13 nM; Activity (Influenza A virus [5]): >90%; CC50 (A549 [6]): 35 nM; EC50 (Human respirovirus 3): 6 nM |
| CN(C)S(=O)(=O)c1ccc(N2CCC(F)(F)C2)c(-c2cc3ccccc3[nH]2)c1 | 107 nM | 27713 mL/min/kg | 6.6 | CL free [8]: 526 mL/min/kg |
| CN(C)S(=O)(=O)c1ccc(N2CC[C@@H](O)C2)c(-c2cc3ccccc3[nH]2)c1 | 513 nM | 1795 mL/min/kg | 4.8 | CL free [8]: 160 mL/min/kg; IC50 at 14 days [10]: 6300 nM |
| CN(C)S(=O)(=O)c1ccc(N2CCCC2)c(-c2cc3cc(F)ccc3[nH]2)c1 | 172 nM |  |  |  |
| C[S@](=N)(=O)c1ccc(N2CC[C@H](O)C2)c(-c2cc3ccccc3[nH]2)c1 | 279 nM |  | 2.7 | CL free [8]: < 12 mL/min/kg |
| CN(C)S(=O)(=O)c1ccc(N2CCCC2)c(-c2cc3ccc(F)cc3[nH]2)c1 | 62 nM |  |  |  |
| O=C([C@H]1CCN1S(=O)(=O)c1ccc(N2CCC(F)(F)C2)c(-c2cc3ccccc3[nH]2)c1)N1CCOCC1 | 615 nM | 3480 mL/min/kg | 5.3 | IC50 at 14 days [10]: 2500 nM |
| Cc1ccc2cc(-c3cc(S(=O)(=O)N(C)CC(=O)NCCC4(CCNC(=O)O[C@@H]5CC/C=C/CCC5)N=N4)ccc3N3CCCC3)[nH]c2c1 | 827 nM |  |  |  |
| CN(C)S(=O)(=O)c1ccc(N2CCCC2)c(C(=O)Nc2ncc(C3CC3)s2)c1 | 332 nM |  |  |  |
| CN(C)S(=O)(=O)c1ccc(N2CCC2)c(-c2cc3ccccc3[nH]2)c1 | 31 nM | 7395 mL/min/kg | 6.5 | CL free [8]: 117 mL/min/kg |
| Cc1cnc(NC(=O)c2cc(S(=O)(=O)N(C)C)ccc2N2CCCC2)s1 | 589 nM | ~ 2000 ml/min.kg | 4.9 | EC50 (Human coronavirus 229E): 1360 nM; EC50 (SARS-CoV-2): 1360 nM; MRT [11]: 18 min; IC50 at 14 days [10]: 20000 nM; Vdss [12]: 1.9 L/kg; EC50 (Human respirovirus 3): 379 nM; CL free [13]: ~ 10000 ml/min.kg; bioavailability [14]: 0.6%; solubility [15]: < 1 µg/mL |
| CN(C)S(=O)(=O)c1ccc(N2CCCC2)c(-c2cc3ccncc3[nH]2)c1 | 394 nM |  |  |  |
| CN(C)S(=O)(=O)c1cnc(N2CCCC2)c(-c2cc3ccccc3[nH]2)c1 | 779 nM |  |  |  |
| Cc1ccc2[nH]c(-c3cc(S(=O)(=O)N(C)C)ccc3N3CCCC3)cc2c1 | 32 nM |  |  |  |
| O=C([C@@H]1CCN1S(=O)(=O)c1ccc(N2CC[C@@H](O)C2)c(-c2cc3ccccc3[nH]2)c1)N1CCOCC1 | 5 nM | 1998 mL/min/kg | 3.5 | EC50 (Human coronavirus 229E): 7 nM; EC50 (SARS-CoV-2): 4 nM; CL free [8]: 904 mL/min/kg; CC50 [3]: 926 nM; CC50 (A549 [4]): 2000 nM; CC50 (A549 [6]): 1950 nM; EC50 (Human respirovirus 3): 57 nM |
| CN(C)S(=O)(=O)c1ccc(N2CCCC2)c(C(=O)Nc2ccccc2)c1 | 5010 nM |  |  |  |
| CN(C)S(=O)(=O)c1ccc(N2CCCC2)c(-c2cc3cccnc3[nH]2)c1 | 409 nM |  |  |  |
| CN(C)S(=O)(=O)c1ccc(N2CCCC2)c(-c2nc3ccccc3[nH]2)c1 | 4420 nM |  |  |  |
